Assay results taken from US10278971B2, “Fluorocyclopentenylcytosine methods of use” (Rexahn Pharmaceuticals, Inc., priority 2015, dated 2019).

Tests used:
A549 = test: Cell cycle distribution and apoptosis by flow cytometry (PI, Annexin V); format: cell-based, human
Experimental: (§1) The effect of RX-3117 on cell cycle regulation and cell death in human non-small cell lung cancer (NSCLC) cell lines A549 (adenocarcinoma), SW1573 (alveolar carcinoma) and SW1573/G- (SW1573 cell line resistant to gemcitabine) and H460 (large cell carcinoma) was assessed. The A549 and H460 cell lines were obtained from American Type Culture Collection (Manassas, Va., USA). The SW1573 cell line, obtained from Dr. Johan van Rijn (see Keiser et al., Cancer Research, 49:2988-2993 (1989)), also served as the parental cell line for SW1573/G-. A549, SW1573, and SW1573/G- and H460 were kept in exponential growth in T25 flasks (Greiner Bio-One GmbH, Frickenhausen, Germany) and cultured in Dulbecco's minimal essential medium (DMEM) or RPMI 1640 (A549) supplemented with 10% heat-inactivated fetal bovine serum (FBS) 1% streptomycin and penicillin 20 mM HEPES and maintained in 37° C. water saturated atmospheres of 5% CO2. For the cell cycle distribution, 1.5×10^5 cells were seeded in a T25 flask (Greiner Bio-One GmbH) and cultured for 72 hours after which 1 μM of RX-3117 was added and incubated for 24 hours. The cells were then harvested. After the treatment, the medium was collected in a 15 ml tube (Greiner Bio-One GmbH). The cells were washed with ice cold PBS and trypsinized (Lonza) at 37° C. The collected medium was used to inactivate trypsin of the corresponding sample and again collected in the 15 ml tube. The cells were centrifuged with the standard centrifuge program, 5 minutes at 4° C. and […]. The medium was removed, pellet washed with 1 ml PBS/0.01% BSA and centrifuged. After removal of the supernatant, the cells were fixed with 1 ml 70% ethanol and incubated at −20° C. for at least 24 hours. Subsequently, the cells were centrifuged, washed with 1 ml PBS/0.1% BSA and transferred to a FALCON FACS tube (BD, Franklin Lakes, N.J., USA). The cells were centrifuged, and the supernatant was removed followed by the addition of 0.5 μg propidium iodide (PI) (Sigma, St. Louis, Mo., USA), 0.1% trisodium citrate (Riedel-de Haen, Sigma-Aldrich Laborchemikalien GmbH, St. Louis, Mo., USA), 0.1% Triton X-100™ (Merck) and 0.1 mg/ml RNase (Sigma) (PI solution) to the samples. Subsequently, for at least 15 minutes, the cells were incubated on ice with the PI solution to stain the DNA before starting the analysis. The cells stained with the PI solution were analyzed by FACSCalibur™ (BD Biosciences, Mount View, Calif., USA). Data was analyzed with CellQuest™ Pro software.
(§2) Cell cycle distribution and apoptosis were analyzed by plating cells in flat bottom 6 well plates (Greiner Bio-One GmbH, Frickenhausen, Germany) at the density of 5,000 cells and allowed to attach for 24 h. Thereafter cytotoxic concentrations of 5×IC50 were added. The exposure time was 24 h and 48 h and for comparison the control group was included. At each time point total amount of adherent and floating cells were harvested in round-bottom FALCON tubes (BD, Franklin Lakes, N.J., USA). After centrifugation, cell pellets were resuspended in 1.0 ml propidium iodide (PI) solution (50 ug/ml PI, 0.1% sodium citrate 0.1% Triton X-100, 0.1 mg/ml ribonuclease A) or 10 ul Annexin V (cat#31490014, Immunotools) and left on ice for 30 minutes. Subsequently, samples were analyzed using FACSCalibur (BD Biosciences, Mount View, Calif., USA). For data analysis CELLQuest™ software was carried out, using gates on DNA histograms to estimate the amount of cells in sub-G1 phase (apoptotic cells).

SW1573 = test: as above; format: cell-based, human
Experimental: as §1, §2

MC38 murine colon cancer = test: Syngeneic MC38 murine colon cancer model, tumor growth; format: in vivo
Experimental: Following the protocol described below, the effect of RX-3117 on tumor growth in a syngeneic model using female C57BL/6 mice with MC38 murine colon cancer was examined. Tumor growth was measured in a treatment group compared to a control (vehicle treated) group (see Table 1 below for dosing scheme and treatment regimen).
Briefly, the method is described as follows. The cells were harvested during exponential growth and re-suspended with phosphate buffered saline. Each test animal received a subcutaneous (s.c.) injection of 1×10^6 tumor cells into the right flank and tumor growth was monitored as the average tumor size approaches the target range of 60-100 mm^3. Dosing, based on Table 1 started as each animal reached this target range.
Tumors were measured in two dimensions using calipers, and volume calculated using the formula:
[…] The MTV (n), the median tumor volume for the number of animals, n, on Day 45, was determined for each group. Percent tumor growth inhibition (% TGI) is defined as the difference between the MTV of the designated control group (vehicle administration) and the MTV of the drug-treated group, expressed as a percentage of the MTV of the control group:
The data set for TGI analysis includes all animals in a group, except those that died due to treatment-related (TR) or non-treatment-related (NTR) causes. An agent that produces at least 60% TGI in this assay is considered to be potentially therapeutically active.
Treatment efficacy was determined from the number of regression responses. Treatment may cause partial regression (PR) or complete regression (CR) of the tumor in an animal. In a PR response, the tumor volume is 50% or less of its D1 volume for three consecutive measurements during the course of the study, and equal to or greater than 13.5 mm^3 for one or more of these three measurements. In a CR response, the tumor volume is less than 13.5 mm^3 for three consecutive measurements during the course of the study. Any animal with a CR response on the last day of the study was additionally classified as a tumor-free-survivor.
For toxicity assessments, animals were weighed daily for the first five days of the study and twice weekly thereafter. The mice were observed frequently for overt signs of any adverse, treatment-related side effects, and clinical signs of toxicity are recorded when observed.
Acceptable toxicity is defined as a group mean body-weight loss of less than 20% during the study and not more than one treatment-related (TR) death among ten treated animals. Any dosing regimen resulting in greater toxicity is considered above the maximum tolerated dose (MTD). […]

[1] = Day 45, N=10 per group, same regimens

Compound: Nc1ccn([C@@H]2C(F)=C(CO)[C@@H](O)[C@H]2O)c(=O)n1 [RX-3117, 4-amino-1-((1S,4R,5S)-2-fluoro-4,5-dihydroxy-3-hydroxymethyl-cyclopent-2-enyl)-1H-pyrimidin-2-one]
- accumulation of cells in the G1 phase (A549; A549, 1 μM, 24 hour exposure): induced accumulation
- increased accumulation of cells in the G1 phase (A549; A549, 1 μM, 24 hour exposure): 20-40%
- apoptosis, Annexin V stained cells (A549; A549, 5 μM, 24, 48, 72 and 96 hour exposure): induced apoptosis
- apoptosis, PI stained cells in the sub-G1 phase (A549; A549, 5×IC50, 24 and 48 hour exposure): induced apoptosis
- accumulation of cells in the S-phase (A549; A549, 5×IC50, 24 and 48 hours): induced the accumulation
- cell kill (A549; A549, 24 hour exposure): No cell kill
- accumulation in S phase (A549; A549, 48 hour exposure): 45%
- cell kill (A549; A549, 48 hour exposure): 8%
- accumulation of cells in the G1 phase (SW1573; SW1573, 1 μM, 24 hour exposure): induced accumulation
- increased accumulation of cells in the G1 phase (SW1573; SW1573, 1 μM, 24 hour exposure): 20-40%
- apoptosis, Annexin V stained cells (SW1573; SW1573, 10 μM, 24, 48, 72 and 96 hour exposure): induced apoptosis
- apoptosis, PI stained cells in the sub-G1 phase (SW1573; SW1573, 5×IC50, 24 and 48 hour exposure): induced apoptosis
- accumulation of cells in the S-phase (SW1573; SW1573, 5×IC50, 24 and 48 hours): induced the accumulation
- cell kill (SW1573; SW1573, 24 hour exposure): No cell kill
- cell kill (SW1573; SW1573, 48 hour exposure): 15%
- CR: No. of Complete Regressions (MC38 murine colon cancer; [1]): 0
- PR: No. of Partial Regressions (MC38 murine colon cancer; [1]): 0
- TFS: No. of Tumor Free Survivors (MC38 murine colon cancer; [1]): 0
- TGI Day 28 (tumor growth inhibition) (MC38 murine colon cancer; female C57BL/6 mice, MC38 s.c., RX-3117 60 mg/kg po (5/2) x 3, anti-PD-1 RMP1-14 100 μg/animal ip biwk x 2, 60 mg/kg): 80%
